Measurements taken from patent publication US9809808B2, “Antimicrobial agents” (KATHOLIEKE UNIVERSITEIT LEUVEN K.U. LEUVEN R&D, priority 2008, dated 2017).
Several values for one entry are separate records, joined by “and”; a condition that tells them apart may be missing. Equal entries are not always repeated. Where two headings read alike, the source gives them in different places.

Columns and labels:
[1] = tested on: P. aeruginosa Br667; assay type: cell-based, Pseudomonas aeruginosa
[2] = tested on: P. putida G1; assay type: cell-based, Pseudomonas putida
[3] = tested on: Burkholderia pseudomallei; assay type: cell-based; conditions: 30 minutes
[4] = tested on: Escherichia coli WK6; assay type: cell-based
[5] = tested on: Salmonella typhimurium LT2; assay type: cell-based; conditions: 30 minutes
[6] = tested on: Pseudomonas aeruginosa PAO1p cells; assay: Effect of different EDTA and endolysin concentrations on antibacterial activity of OBPgpLYS and PKOBPgpLYS; assay type: cell-based
Description: To determine the influence of EDTA on the antibacterial activity of unmodified and modified endolysins the antibacterial activity of the unmodified OBPgpLYS endolysin (SEQ ID NO: 7) and the PKOBPgpLYS endolysin (SEQ ID NO: 61) was tested on Pseudomonas aeruginosa PAO1p cells ([…] et al. J Clin Microbiol., 41(3):1192-1202 (2003)) using different concentrations of EDTA and endolysins. Exponential growing bacterial cells (OD600 nm of 0.6) were 100-fold diluted to a final density of about 10^6/ml and incubated for 30 minutes at room temperature without shaking with unmodified endolysin OBPgpLYS (SEQ ID NO: 7) and modified endolysin PKOBPgpLYS (SEQ ID NO: 61). […] Thereby, the following different EDTA concentrations were used: 0 mM, 0.05 mM, 0.5 mM and 10 mM. […] After incubation cell suspensions were diluted three times (respectively 10^5-10^4-10^3 cells/ml) and 100 μl of each dilution was plated out on LB-medium. […] All samples were replicated in threefold. Averages+/-standard deviations are represented.

[7] = tested on: Gram-negative strains of Table 12; assay type: cell-based
[8] = 1.313 μM endolysin, no EDTA, 30 minutes
[9] = 1.313 μM endolysin + 0.5 mM EDTA
[10] = 0.013 μM endolysin, 0 mM EDTA-Na2, 30 minutes
[11] = 0.013 μM endolysin, 0.5 mM EDTA-Na2, 30 minutes
[12] = 0.131 μM endolysin, 0 mM EDTA-Na2, 30 minutes
[13] = 0.131 μM endolysin, 0.5 mM EDTA-Na2, 30 minutes
[14] = 1.315 μM endolysin, 0.05 mM EDTA-Na2, 30 minutes
[15] = 1.315 μM endolysin, 0.5 mM EDTA-Na2, 30 minutes
[16] = 1.315 μM endolysin, 10 mM EDTA-Na2, 30 minutes

Substance	relative inactivation in logarithmic units (log10N0/Ni) [1]	relative inactivation in logarithmic units (log10N0/Ni) [1, 8]	relative inactivation in logarithmic units (log10N0/Ni) [2]	relative inactivation in logarithmic units (log10N0/Ni) [2, 8]	relative inactivation in logarithmic units (log10N0/Ni) [3, 9]	relative inactivation in logarithmic units (log10N0/Ni) ([3]; 1.313 μM endolysin, no EDTA)	relative inactivation in logarithmic units (log10N0/Ni) [4]	relative inactivation in logarithmic units (log10N0/Ni) [4, 8]	relative inactivation in logarithmic units (log10N0/Ni) [5, 9]	relative inactivation in logarithmic units (log10N0/Ni) ([5]; 1.313 μM endolysin, no EDTA)	relative inactivation in logarithmic units (log10N0/Ni) [6, 10]	relative inactivation in logarithmic units (log10N0/Ni) [6, 11]	relative inactivation in logarithmic units (log10N0/Ni) [6, 12]	relative inactivation in logarithmic units (log10N0/Ni) [6, 13]	relative inactivation in logarithmic units (log10N0/Ni) [6, 14]	relative inactivation in logarithmic units (log10N0/Ni) [6, 15]	relative inactivation in logarithmic units (log10N0/Ni) [6, 16]	other results
OBPgpLYS: SEQ ID NO: 7: unmodified modular endolysin of 328 amino acid residues originating from Pseudomonas putida phage OBP	3.144 +/− 0.223 logarithmic units	1.082 +/− 0.083 logarithmic units	4.891 +/− 0.000 logarithmic units	0.141 +/− 0.027 logarithmic units	4.08 +/− 0.301 logarithmic units	0.997 +/− 0.131 logarithmic units	1.179 +/− 0.200 logarithmic units	0.681 +/− 0.032 logarithmic units	0.774 +/− 0.052 logarithmic units	0.076 +/− 0.011 logarithmic units	0.956 +/− 0.110 log units	4.626 +/− 0.287 log units	2.158 +/− 0.027 log units	4.599 +/− 0.275 log units	2.762 +/− 0.091 log units	4.357 +/− 1.857 log units	4.888 +/− 0.275 log units	–
PKOBPgpLYS: SEQ ID NO: 61: OBPgpLYS (SEQ ID NO: 7) with N-terminal peptide stretch KRKKRKKRK (SEQ ID NO: 11)	5.272 +/− 0.573 logarithmic units	1.163 +/− 0.063 logarithmic units	>4.891 logarithmic units	0.904 +/− 0.079 logarithmic units	>4.861 logarithmic units	1.806 +/− 0.287 logarithmic units	1.695 +/− 0.147 logarithmic units	1.434 +/− 0.018 logarithmic units	0.908 +/− 0.037 logarithmic units	0.127 +/− 0.013 logarithmic units	0.992 +/− 0.181 log units	5.204 +/− 0.000 log units	2.529 +/− 0.184 log units	5.671 +/− 0.000 log units	4.145 +/− 0.015 log units	> 5.69 log units and >5.687 log units	> 5.69 log units and >5.687 log units	Δ, difference of activity between OBPgpLYS and PKOBPgpLYS samples ([6]; 0.013 μM endolysin, 0 mM EDTA-Na2): 0.036 log units; Δ, difference of activity between OBPgpLYS and PKOBPgpLYS samples ([6]; 0.013 μM endolysin, 0.5 mM EDTA-Na2): 0.578 log units; Δ, difference of activity between OBPgpLYS and PKOBPgpLYS samples ([6]; 0.131 μM endolysin, 0 mM EDTA-Na2): 0.371 log units; Δ, difference of activity between OBPgpLYS and PKOBPgpLYS samples ([6]; 0.131 μM endolysin, 0.5 mM EDTA-Na2): 1.072 log units; Δ, difference of activity between OBPgpLYS and PKOBPgpLYS samples ([6]; 1.315 μM endolysin, 0 mM EDTA-Na2): 0.5 log units and 0.548 log units; relative inactivation in logarithmic units (log10N0/Ni) ([6]; 1.315 μM endolysin, 0 mM EDTA-Na2, 30 minutes): 3.079 +/− 0.015 log units; Δ, difference of activity between OBPgpLYS and PKOBPgpLYS samples ([6]; 1.315 μM endolysin, 0.05 mM EDTA-Na2): 1.383 log units; Δ, difference of activity between OBPgpLYS and PKOBPgpLYS samples ([6]; 1.315 μM endolysin, 0.5 mM EDTA-Na2): >1.330 log units; Δ, difference of activity between OBPgpLYS and PKOBPgpLYS samples ([6]; 1.315 μM endolysin, 10 mM EDTA-Na2): >0.799 log units; effect compared to unmodified OBPgpLYS (in words) [7]: added effect; interaction with EDTA (in words) [7]: clear synergistic effect
